Assay results from ChEMBL document CHEMBL1147869, “Computational approach to the basicity of a series of alpha1-adrenoceptor ligands in aqueous solution” (Bioorg Med Chem, 2007).

Assay: Dissociation constant, pKa of the compound
Format: physicochemical

pKa	SMILES
9.8	c1cc(NC2=NCCN2)ccc1Cc1ccc(NC2=NCCN2)cc1
9.4	N=C(N)Nc1ccc(C(=O)c2ccc(NC(=N)N)cc2)cc1
8.58	NC[C@H](O)c1ccc(O)c(O)c1 [NOREPINEPHRINE]

Second part, the molecule before the results:

SMILES	pKa
c1cc(Nc2ccc(NC3=NCCN3)cc2)ccc1NC1=NCCN1	9.9
CNC[C@H](O)c1ccc(O)c(O)c1 [EPINEPHRINE]	8.59
O=C(c1ccc(NC2=NCCN2)cc1)c1ccc(NC2=NCCN2)cc1	8.6
N=C(N)Nc1ccc(Cc2ccc(NC(=N)N)cc2)cc1	10.5
N=C(N)Nc1ccc(Nc2ccc(NC(=N)N)cc2)cc1	10.8
COc1cc2nc(N3CCN(C(=O)C4COc5ccccc5O4)CC3)nc(N)c2cc1OC (centres undefined) [DOXAZOSIN]	6.9
